Results as given in ChEMBL document CHEMBL3886282, “N-myristoyl transferase inhibitors” (2015).

Columns and labels:
[1] = target: T1, Glycylpeptide N-tetradecanoyltransferase (Leishmania major, UniProt Q4Q5S8); assay: Enzyme Inhibition Assay: Measurements were performed using a modification of the scintillation proximity assay platform described previously by Georgopapadakou, N. H. et al. (22nd International Congress on Chemotherapy, 2001, Abstract P16.001). Compounds were solubilised in DMSO at a top concentration of 10 mM and serially diluted in half log steps to achieve a range of final assay concentrations …
T1 sequence (Q4Q5S8 whole entry): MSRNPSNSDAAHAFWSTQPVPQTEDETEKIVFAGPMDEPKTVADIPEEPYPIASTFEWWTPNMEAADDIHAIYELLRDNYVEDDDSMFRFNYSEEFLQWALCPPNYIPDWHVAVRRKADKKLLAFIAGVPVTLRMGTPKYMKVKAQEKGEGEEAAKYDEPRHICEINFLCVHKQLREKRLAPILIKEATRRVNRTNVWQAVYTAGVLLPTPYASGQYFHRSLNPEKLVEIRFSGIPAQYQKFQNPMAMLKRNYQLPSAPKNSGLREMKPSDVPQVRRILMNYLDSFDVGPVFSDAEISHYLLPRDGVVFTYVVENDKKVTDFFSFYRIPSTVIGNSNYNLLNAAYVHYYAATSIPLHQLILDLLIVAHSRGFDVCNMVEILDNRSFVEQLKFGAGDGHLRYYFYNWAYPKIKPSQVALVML

[2] = target: T2, Glycylpeptide N-tetradecanoyltransferase 1 (Homo sapiens, UniProt P30419); assay: as above
T2 sequence (P30419 whole entry): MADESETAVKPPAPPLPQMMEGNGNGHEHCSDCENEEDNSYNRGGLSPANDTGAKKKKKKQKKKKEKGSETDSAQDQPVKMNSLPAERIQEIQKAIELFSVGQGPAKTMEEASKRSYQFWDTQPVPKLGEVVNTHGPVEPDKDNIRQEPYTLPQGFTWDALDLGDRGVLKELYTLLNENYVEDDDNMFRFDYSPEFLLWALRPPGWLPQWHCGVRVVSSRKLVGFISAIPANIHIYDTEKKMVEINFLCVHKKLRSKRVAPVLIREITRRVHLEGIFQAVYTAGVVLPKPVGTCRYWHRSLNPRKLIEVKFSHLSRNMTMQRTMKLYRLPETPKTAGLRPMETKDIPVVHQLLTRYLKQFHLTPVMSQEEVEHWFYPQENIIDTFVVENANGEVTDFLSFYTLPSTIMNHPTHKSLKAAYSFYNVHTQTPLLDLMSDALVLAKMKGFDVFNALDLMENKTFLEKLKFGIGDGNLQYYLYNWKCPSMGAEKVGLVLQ

Row | Compound | IC50 [1] | IC50 [2]
1 | Cc1nn(C)c(C)c1N(C(F)F)[S+](=O)([O-])c1c(Cl)cc(Br)cc1Cl | > 1 µM | > 1 µM
2 | Cc1nn(C)c(C)c1N(C(F)F)S(=O)(=O)c1c(Cl)cc(CCCOC2CC(C)(C)N(C)C(C)(C)C2)cc1Cl | 0.04 µM | > 1 µM
